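Briefly, cells in 96-well plates were exposed to five compound concentrations for 48 h, and endpoints were estimated by linear interpolation. GI50 = concentration required for 50% inhibition of growth. The concentration for full growth arrest is given as TGI.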
System: HCT-116 colon
Test: inhibition of tumour cell growth, NCI panel, 48 h

| SMILES | GI50 [µM] | TGI [µM] |
| --- | --- | --- |
| C=C1C(=O)O[C@H]2[C@H]1CC/C(COC(=O)c1cc3ccccc3s1)=C\CC[C@@]1(C)O[C@@H]21 | 0.591 | 2.1 |
| Fc1ccc(-c2nn3ncccc3c2-c2ccnc(Nc3ccc4c(c3)OCCO4)n2)cc1 | 3.05 | 7.09 |
| CC1(C)N=C(N)N=C(N)N1c1ccc(OCc2ccc(S(=O)(=O)F)c(Cl)c2)c(Cl)c1 | 0.51 | > 100 |
| CO[C@H]1C=C[C@@]23c4cc5c(cc4CO[C@]2(O)CN(C)[C@H]3C1)OCO5 | – | > 100 |
| CC(C)N1CN(C(C(=O)N[C@@H]2C(=O)N3C2SC(C)(C)C3C(=O)O)c2ccccc2)CSC1=S (stereo partly specified) | – | > 100 |
| COC(=O)c1c(C)[nH]c(/C=C2\N=C(c3ccc[nH]3)C=C2OC)c1C | 0.0378 | 1.2 |
| COc1cc2c3c(n(CCCCOC(=O)C(Cl)(Cl)Cl)c(=O)c2cc1OC)-c1cc2c(cc1C3=O)OCO2 | 17 | 34.2 |
| CCOC(=O)c1c(C)nc2c(c1N)/C(=C/c1ccc(OC)cc1)C(=O)N2Cc1ccc(F)cc1 | 0.134 | 0.36 |
| CCCCOC(=O)NC(=O)c1cn(C2CCCCC2)c(=O)[nH]c1=O | – | 50.1 |
| COc1cc(NS(=O)(=O)c2ccc(-c3cnc(C4CC4)o3)cc2)ccc1F | 0.29 | 14.1 |
| COc1ccccc1Cn1cc2c(c1-c1ccccc1)CCc1cnoc1-2 | 2.8 | > 100 |
| COc1cc2c(c(OC)c1OC)C(=O)[C@@H]1c3ccc([N+](=O)[O-])cc3C(=O)N(CCCBr)[C@H]21 | 4.59 | 51 |
| O=C1OC(c2ccco2)=N/C1=C\c1cccc([N+](=O)[O-])c1 | – | > 100 |
| Nc1ncn(C2CC(O)C(CO)O2)c(=O)n1 (stereo unspecified) | – | > 375 |
| COc1ccc(CNc2nc3cc(C(F)(F)F)ccc3nc2C)cc1OC | – | > 100 |
| N#CCc1ccc(C(C#N)/C(CCCC(=O)Nc2cccc([N+](=O)[O-])c2)=N/NC(N)=S)cc1 (stereo unspecified) | – | > 100 |
| COc1cc2c3c(n(C)c(=O)c2cc1OC)-c1cc2c(cc1/C3=C\CNCCCN)OCO2 | 0.107 | 4.19 |
| O=C(/C=C\n1cnc(-c2cc(C(F)(F)F)cc(C(F)(F)F)c2)n1)NNc1cnccn1 | 0.0821 | 12.4 |
| COc1ccc(-c2nnc(COc3ccc(NC(=O)Nc4ccc(Cl)c(C(F)(F)F)c4)cc3F)o2)cc1 | 2.49 | 11.7 |
| CCN(CC)CCCC(C)Nc1cnc(C(=O)Nc2cccc3ccc(OC)nc23)cn1 (stereo unspecified) | 1.62 | 3.44 |
| N#C/C(=C\c1cc2ccccc2c2ccccc12)c1ccccc1 | – | 18.2 |
| COC(=O)C12C3C4C1C1C2C3C41NC(=O)c1csc([C@@H](C[C@H](C(C)C)N(C)C(=O)[C@@H](NC(=O)[C@H]2CCCCN2C)C2CC2)OC(C)=O)n1 (stereo partly specified) | 0.0123 | > 33.3 |
| CS(=O)(=O)c1cc(=O)c2ccccc2s1 | – | 4.05 |
| CSc1nc2cc(S(=O)(=O)N3CCCCC3)ccc2s1 | – | > 100 |
| Nc1nc(-c2cccc(Cl)c2)c(-c2ccc3ncccc3n2)s1 | > 25 | > 25 |
| Cc1ccc2c(c1)CN(C(=O)CCC(=O)OCc1ccccc1)c1ccc(C)cc1CN2C(=O)CCC(=O)OCc1ccccc1 | – | > 100 |
| O=c1[nH]c(=O)n(C2OC(CO)C(O)C(O)C2O)cc1F (stereo unspecified) | – | > 100 |
| c1cc[c]([Pb]([c]2ccccc2)[c]2ccccc2)cc1 | 10.5 | 27.1 |
| CCCCN1CSC(=S)N(Cc2ccccc2)C1 | – | > 100 |

System: U251 CNS
Test: inhibition of tumour cell growth, NCI panel, 48 h

| SMILES | GI50 [µM] | TGI [µM] |
| --- | --- | --- |
| C=C1C(=O)O[C@H]2[C@H]1CC/C(COC(=O)c1cc3ccccc3s1)=C\CC[C@@]1(C)O[C@@H]21 | 1.52 | 3.03 |
| Fc1ccc(-c2nn3ncccc3c2-c2ccnc(Nc3ccc4c(c3)OCCO4)n2)cc1 | 7.72 | > 25 |
| CC1(C)N=C(N)N=C(N)N1c1ccc(OCc2ccc(S(=O)(=O)F)c(Cl)c2)c(Cl)c1 | 2.9 | > 100 |
| CO[C@H]1C=C[C@@]23c4cc5c(cc4CO[C@]2(O)CN(C)[C@H]3C1)OCO5 | – | > 100 |
| CC(C)N1CN(C(C(=O)N[C@@H]2C(=O)N3C2SC(C)(C)C3C(=O)O)c2ccccc2)CSC1=S (stereo partly specified) | – | > 100 |
| COC(=O)c1c(C)[nH]c(/C=C2\N=C(c3ccc[nH]3)C=C2OC)c1C | 0.117 | 2.49 |
| COc1cc2c3c(n(CCCCOC(=O)C(Cl)(Cl)Cl)c(=O)c2cc1OC)-c1cc2c(cc1C3=O)OCO2 | 21.5 | > 100 |
| CCOC(=O)c1c(C)nc2c(c1N)/C(=C/c1ccc(OC)cc1)C(=O)N2Cc1ccc(F)cc1 | 0.197 | 0.508 |
| CCCCOC(=O)NC(=O)c1cn(C2CCCCC2)c(=O)[nH]c1=O | – | 76.1 |
| COc1cc(NS(=O)(=O)c2ccc(-c3cnc(C4CC4)o3)cc2)ccc1F | 0.572 | 18.1 |
| COc1ccccc1Cn1cc2c(c1-c1ccccc1)CCc1cnoc1-2 | 4.06 | > 100 |
| COc1cc2c(c(OC)c1OC)C(=O)[C@@H]1c3ccc([N+](=O)[O-])cc3C(=O)N(CCCBr)[C@H]21 | 23.3 | > 100 |
| O=C1OC(c2ccco2)=N/C1=C\c1cccc([N+](=O)[O-])c1 | – | > 100 |
| Nc1ncn(C2CC(O)C(CO)O2)c(=O)n1 (stereo unspecified) | – | > 307 |
| COc1ccc(CNc2nc3cc(C(F)(F)F)ccc3nc2C)cc1OC | – | > 100 |
| N#CCc1ccc(C(C#N)/C(CCCC(=O)Nc2cccc([N+](=O)[O-])c2)=N/NC(N)=S)cc1 (stereo unspecified) | – | > 100 |
| COc1cc2c3c(n(C)c(=O)c2cc1OC)-c1cc2c(cc1/C3=C\CNCCCN)OCO2 | 0.0717 | 1.58 |
| O=C(/C=C\n1cnc(-c2cc(C(F)(F)F)cc(C(F)(F)F)c2)n1)NNc1cnccn1 | 0.0511 | 12.4 |
| COc1ccc(-c2nnc(COc3ccc(NC(=O)Nc4ccc(Cl)c(C(F)(F)F)c4)cc3F)o2)cc1 | 1.93 | 5.7 |
| CCN(CC)CCCC(C)Nc1cnc(C(=O)Nc2cccc3ccc(OC)nc23)cn1 (stereo unspecified) | 1.81 | 3.52 |
| N#C/C(=C\c1cc2ccccc2c2ccccc12)c1ccccc1 | – | 36.8 |
| COC(=O)C12C3C4C1C1C2C3C41NC(=O)c1csc([C@@H](C[C@H](C(C)C)N(C)C(=O)[C@@H](NC(=O)[C@H]2CCCCN2C)C2CC2)OC(C)=O)n1 (stereo partly specified) | 0.0527 | > 33.3 |
| CS(=O)(=O)c1cc(=O)c2ccccc2s1 | – | 37.6 |
| CSc1nc2cc(S(=O)(=O)N3CCCCC3)ccc2s1 | – | > 100 |
| Nc1nc(-c2cccc(Cl)c2)c(-c2ccc3ncccc3n2)s1 | > 25 | > 25 |
| Cc1ccc2c(c1)CN(C(=O)CCC(=O)OCc1ccccc1)c1ccc(C)cc1CN2C(=O)CCC(=O)OCc1ccccc1 | – | > 100 |
| O=c1[nH]c(=O)n(C2OC(CO)C(O)C(O)C2O)cc1F (stereo unspecified) | – | > 100 |
| c1cc[c]([Pb]([c]2ccccc2)[c]2ccccc2)cc1 | 11.3 | 23.9 |
| CCCCN1CSC(=S)N(Cc2ccccc2)C1 | – | > 100 |

System: SK-MEL-2 melanoma
Test: inhibition of tumour cell growth, NCI panel, 48 h

| SMILES | GI50 [µM] | TGI [µM] |
| --- | --- | --- |
| C=C1C(=O)O[C@H]2[C@H]1CC/C(COC(=O)c1cc3ccccc3s1)=C\CC[C@@]1(C)O[C@@H]21 | 1.75 | 3.52 |
| Fc1ccc(-c2nn3ncccc3c2-c2ccnc(Nc3ccc4c(c3)OCCO4)n2)cc1 | 4.45 | 9.71 |
| CC1(C)N=C(N)N=C(N)N1c1ccc(OCc2ccc(S(=O)(=O)F)c(Cl)c2)c(Cl)c1 | > 100 | > 100 |
| CO[C@H]1C=C[C@@]23c4cc5c(cc4CO[C@]2(O)CN(C)[C@H]3C1)OCO5 | – | > 100 |
| CC(C)N1CN(C(C(=O)N[C@@H]2C(=O)N3C2SC(C)(C)C3C(=O)O)c2ccccc2)CSC1=S (stereo partly specified) | – | > 100 |
| COC(=O)c1c(C)[nH]c(/C=C2\N=C(c3ccc[nH]3)C=C2OC)c1C | 0.328 | 1.27 |
| COc1cc2c3c(n(CCCCOC(=O)C(Cl)(Cl)Cl)c(=O)c2cc1OC)-c1cc2c(cc1C3=O)OCO2 | > 100 | > 100 |
| CCOC(=O)c1c(C)nc2c(c1N)/C(=C/c1ccc(OC)cc1)C(=O)N2Cc1ccc(F)cc1 | 0.238 | 0.729 |
| CCCCOC(=O)NC(=O)c1cn(C2CCCCC2)c(=O)[nH]c1=O | – | > 100 |
| COc1cc(NS(=O)(=O)c2ccc(-c3cnc(C4CC4)o3)cc2)ccc1F | 0.706 | 23.6 |
| COc1ccccc1Cn1cc2c(c1-c1ccccc1)CCc1cnoc1-2 | 1.83 | 9.97 |
| COc1cc2c(c(OC)c1OC)C(=O)[C@@H]1c3ccc([N+](=O)[O-])cc3C(=O)N(CCCBr)[C@H]21 | 19.7 | 59.8 |
